Source: ChEMBL document CHEMBL1649226, “Species identification and antifungal susceptibility patterns of species belonging to Aspergillus section Nigri” (2009)
Converted amounts (≈) assume the structure as drawn.

Key:
Format in all cases: functional
Aspergillus niger [1] = test: Antifungal activity against Aspergillus niger isolate CM-3236 obtained from respiratory tract infection of patient after 48 hrs by EUCAST broth dilution method; details: isolate CM-3236, 48 h
Aspergillus niger [2] = test: Antifungal activity against Aspergillus niger isolate CM-3641 obtained from respiratory tract infection of patient after 48 hrs by EUCAST broth dilution method; details: isolate CM-3641, 48 h
Aspergillus tubingensis [3] = test: Antifungal activity against Aspergillus tubingensis isolate CM-4899 obtained from respiratory tract infection of patient after 48 hrs by EUCAST broth dilution method; details: isolate CM-4899, 48 h
Aspergillus tubingensis [4] = test: Antifungal activity against Aspergillus tubingensis isolate CM-5094 obtained from respiratory tract infection of patient after 48 hrs by EUCAST broth dilution method; details: isolate CM-5094, 48 h
Aspergillus niger [5] = test: Antifungal activity against Aspergillus niger isolate CM-4004 obtained from after 48 hrs by EUCAST broth dilution method; details: isolate CM-4004, 48 h
Aspergillus tubingensis [6] = test: Antifungal activity against Aspergillus tubingensis isolate CM-3123 obtained from respiratory tract infection of patient after 48 hrs by EUCAST broth dilution method; details: isolate CM-3123, 48 h
Aspergillus foetidus [7] = test: Antifungal activity against Aspergillus foetidus isolate CM-5264 obtained from respiratory tract infection of patient after 48 hrs by EUCAST broth dilution method; details: isolate CM-5264, 48 h
Aspergillus tubingensis [8] = test: Antifungal activity against Aspergillus tubingensis isolate CM-3507 obtained from respiratory tract infection of patient after 48 hrs by EUCAST broth dilution method; details: isolate CM-3507, 48 h
Aspergillus tubingensis [9] = test: Antifungal activity against Aspergillus tubingensis isolate CM-3654 obtained from blood culture after 48 hrs by EUCAST broth dilution method; details: isolate CM-3654, 48 h
Aspergillus niger [10] = test: Antifungal activity against Aspergillus niger isolate CM-4213 obtained from respiratory tract infection of patient after 48 hrs by EUCAST broth dilution method; details: isolate CM-4213, 48 h
Aspergillus tubingensis [11] = test: Antifungal activity against Aspergillus tubingensis isolate CM-3585 after 48 hrs by EUCAST broth dilution method; details: isolate CM-3585, 48 h
Aspergillus tubingensis [12] = test: Antifungal activity against Aspergillus tubingensis isolate CM-4897 obtained from blood culture after 48 hrs by EUCAST broth dilution method; details: isolate CM-4897, 48 h
Aspergillus niger [13] = test: Antifungal activity against Aspergillus niger isolate CM-3506 obtained from respiratory tract infection of patient after 48 hrs by EUCAST broth dilution method; details: isolate CM-3506, 48 h
Aspergillus niger [14] = test: Antifungal activity against Aspergillus niger isolate CM-5095 obtained from respiratory tract infection of patient after 48 hrs by EUCAST broth dilution method; details: isolate CM-5095, 48 h
Aspergillus niger [15] = test: Antifungal activity against Aspergillus niger isolate CM-3672 obtained from cutaneous layer of patient after 48 hrs by EUCAST broth dilution method; details: isolate CM-3672, 48 h
Aspergillus tubingensis [16] = test: Antifungal activity against Aspergillus tubingensis isolate CM-4001 after 48 hrs by EUCAST broth dilution method; details: isolate CM-4001, 48 h
Aspergillus tubingensis [17] = test: Antifungal activity against Aspergillus tubingensis isolate CM-3810 obtained from respiratory tract infection of patient after 48 hrs by EUCAST broth dilution method; details: isolate CM-3810, 48 h
Aspergillus niger [18] = test: Antifungal activity against Aspergillus niger isolate CM-3551 obtained from respiratory tract infection of patient after 48 hrs by EUCAST broth dilution method; details: isolate CM-3551, 48 h
Aspergillus tubingensis [19] = test: Antifungal activity against Aspergillus tubingensis isolate CM-3125 obtained from respiratory tract infection of patient after 48 hrs by EUCAST broth dilution method; details: isolate CM-3125, 48 h
Aspergillus niger [20] = test: Antifungal activity against Aspergillus niger isolate CM-3586 obtained from catheter of patient after 48 hrs by EUCAST broth dilution method; details: isolate CM-3586, 48 h
Aspergillus tubingensis [21] = test: Antifungal activity against Aspergillus tubingensis isolate CM-4296 obtained from respiratory tract infection of patient after 48 hrs by EUCAST broth dilution method; details: isolate CM-4296, 48 h
Aspergillus foetidus [22] = test: Antifungal activity against Aspergillus foetidus isolate CM-4995 obtained from prosthesis after 48 hrs by EUCAST broth dilution method; details: isolate CM-4995, 48 h
Aspergillus niger [23] = test: Antifungal activity against Aspergillus niger isolate CM-4262 after 48 hrs by EUCAST broth dilution method Ophthalmic; details: isolate CM-4262, 48 h
Aspergillus foetidus [24] = test: Antifungal activity against Aspergillus foetidus isolate CM-4002 after 48 hrs by EUCAST broth dilution method; details: isolate CM-4002, 48 h
Aspergillus tubingensis [25] = test: Antifungal activity against Aspergillus tubingensis isolate CM-4000 after 48 hrs by EUCAST broth dilution method; details: isolate CM-4000, 48 h
Aspergillus tubingensis [26] = test: Antifungal activity against Aspergillus tubingensis isolate CM-4352 obtained from respiratory tract infection of patient after 48 hrs by EUCAST broth dilution method; details: isolate CM-4352, 48 h
Aspergillus niger [27] = test: Antifungal activity against Aspergillus niger isolate CM-3257 obtained from respiratory tract infection of patient after 48 hrs by EUCAST broth dilution method; details: isolate CM-3257, 48 h
Aspergillus tubingensis [28] = test: Antifungal activity against Aspergillus tubingensis isolate CM-3177 obtained from respiratory tract infection of patient after 48 hrs by EUCAST broth dilution method; details: isolate CM-3177, 48 h
Aspergillus tubingensis [29] = test: Antifungal activity against Aspergillus tubingensis isolate CM-4003 after 48 hrs by EUCAST broth dilution method; details: isolate CM-4003, 48 h
Aspergillus niger [30] = test: Antifungal activity against Aspergillus niger isolate CM-3636 obtained from respiratory tract infection of patient after 48 hrs by EUCAST broth dilution method; details: isolate CM-3636, 48 h
Aspergillus tubingensis [31] = test: Antifungal activity against Aspergillus tubingensis isolate CM-4688 obtained from respiratory tract infection of patient after 48 hrs by EUCAST broth dilution method; details: isolate CM-4688, 48 h
Aspergillus niger [32] = test: Antifungal activity against Aspergillus niger isolate CM-4316 obtained from respiratory tract infection of patient after 48 hrs by EUCAST broth dilution method; details: isolate CM-4316, 48 h
Aspergillus tubingensis [33] = test: Antifungal activity against Aspergillus tubingensis isolate CM-4005 after 48 hrs by EUCAST broth dilution method; details: isolate CM-4005, 48 h
Aspergillus tubingensis [34] = test: Antifungal activity against Aspergillus tubingensis isolate CM-4264 obtained from blood culture after 48 hrs by EUCAST broth dilution method; details: isolate CM-4264, 48 h

SMILES	MIC (Aspergillus niger [1]) [µg/mL]	MIC (Aspergillus niger [2]) [µg/mL]	MIC (Aspergillus tubingensis [3]) [µg/mL]	MIC (Aspergillus tubingensis [4]) [µg/mL]	MIC (Aspergillus niger [5]) [µg/mL]	MIC (Aspergillus tubingensis [6]) [µg/mL]	MIC (Aspergillus foetidus [7]) [µg/mL]	MIC (Aspergillus tubingensis [8]) [µg/mL]	MIC (Aspergillus tubingensis [9]) [µg/mL]	MIC (Aspergillus niger [10]) [µg/mL]	MIC (Aspergillus tubingensis [11]) [µg/mL]	MIC (Aspergillus tubingensis [12]) [µg/mL]	MIC (Aspergillus niger [13]) [µg/mL]	MIC (Aspergillus niger [14]) [µg/mL]	MIC (Aspergillus niger [15]) [µg/mL]	MIC (Aspergillus tubingensis [16]) [µg/mL]	MIC (Aspergillus tubingensis [17]) [µg/mL]	MIC (Aspergillus niger [18]) [µg/mL]	MIC (Aspergillus tubingensis [19]) [µg/mL]	MIC (Aspergillus niger [20]) [µg/mL]	further results
C[C@@H](c1nc(-c2ccc(C#N)cc2)cs1)[C@](O)(Cn1cncn1)c1ccc(F)cc1F [RAVUCONAZOLE]	1 (≈ 2.29 µM)	1 (≈ 2.29 µM)	2.67 (≈ 6.1 µM)	2 (≈ 4.57 µM)	1.67 (≈ 3.82 µM)	2.67 (≈ 6.1 µM)	8 (≈ 18.3 µM)	1.5 (≈ 3.43 µM)	2.5 (≈ 5.71 µM)	0.58 (≈ 1.33 µM)	1.67 (≈ 3.82 µM)	2 (≈ 4.57 µM)	1 (≈ 2.29 µM)	1.5 (≈ 3.43 µM)	1.5 (≈ 3.43 µM)	2.5 (≈ 5.71 µM)	2 (≈ 4.57 µM)	2 (≈ 4.57 µM)	1.67 (≈ 3.82 µM)	2 (≈ 4.57 µM)	MIC (Aspergillus tubingensis [21]): 1.5 µg/mL (≈ 3.43 µM); MIC (Aspergillus foetidus [22]): 2 µg/mL (≈ 4.57 µM); MIC (Aspergillus niger [23]): 2 µg/mL (≈ 4.57 µM); MIC (Aspergillus foetidus [24]): 2.67 µg/mL (≈ 6.1 µM); MIC (Aspergillus tubingensis [25]): 2 µg/mL (≈ 4.57 µM); MIC (Aspergillus tubingensis [26]): 2 µg/mL (≈ 4.57 µM); MIC (Aspergillus niger [27]): 1 µg/mL (≈ 2.29 µM); MIC (Aspergillus tubingensis [28]): 3.33 µg/mL (≈ 7.61 µM); MIC (Aspergillus tubingensis [29]): 4 µg/mL (≈ 9.14 µM); MIC (Aspergillus niger [30]): 1 µg/mL (≈ 2.29 µM); MIC (Aspergillus tubingensis [31]): 3.33 µg/mL (≈ 7.61 µM); MIC (Aspergillus niger [32]): 1 µg/mL (≈ 2.29 µM); MIC (Aspergillus tubingensis [33]): 4 µg/mL (≈ 9.14 µM); MIC (Aspergillus tubingensis [34]): 1.5 µg/mL (≈ 3.43 µM)
CN(C/C=C/C#CC(C)(C)C)Cc1cccc2ccccc12 [TERBINAFINE]	1 (≈ 3.43 µM)	0.25 (≈ 0.858 µM)	0.33 (≈ 1.13 µM)	0.62 (≈ 2.13 µM)	0.13 (≈ 0.446 µM)	1.17 (≈ 4.01 µM)	0.5 (≈ 1.72 µM)	0.62 (≈ 2.13 µM)	0.63 (≈ 2.16 µM)	0.22 (≈ 0.755 µM)	0.42 (≈ 1.44 µM)	0.42 (≈ 1.44 µM)	0.31 (≈ 1.06 µM)	0.62 (≈ 2.13 µM)	0.07 (≈ 0.24 µM)	0.56 (≈ 1.92 µM)	1 (≈ 3.43 µM)	0.25 (≈ 0.858 µM)	0.5 (≈ 1.72 µM)	0.12 (≈ 0.412 µM)	MIC (Aspergillus tubingensis [21]): 0.62 µg/mL (≈ 2.13 µM); MIC (Aspergillus foetidus [22]): 0.33 µg/mL (≈ 1.13 µM); MIC (Aspergillus niger [23]): 0.29 µg/mL (≈ 0.995 µM); MIC (Aspergillus foetidus [24]): 0.33 µg/mL (≈ 1.13 µM); MIC (Aspergillus tubingensis [25]): 0.33 µg/mL (≈ 1.13 µM); MIC (Aspergillus tubingensis [26]): 0.31 µg/mL (≈ 1.06 µM); MIC (Aspergillus niger [27]): 1 µg/mL (≈ 3.43 µM); MIC (Aspergillus tubingensis [28]): 0.67 µg/mL (≈ 2.3 µM); MIC (Aspergillus tubingensis [29]): 1 µg/mL (≈ 3.43 µM); MIC (Aspergillus niger [30]): 1 µg/mL (≈ 3.43 µM); MIC (Aspergillus tubingensis [31]): 1.5 µg/mL (≈ 5.15 µM); MIC (Aspergillus niger [32]): 0.5 µg/mL (≈ 1.72 µM); MIC (Aspergillus tubingensis [33]): 0.25 µg/mL (≈ 0.858 µM); MIC (Aspergillus tubingensis [34]): 0.5 µg/mL (≈ 1.72 µM)
C[C@@H](c1ncncc1F)[C@](O)(Cn1cncn1)c1ccc(F)cc1F [VORICONAZOLE]	0.5 (≈ 1.43 µM)	1 (≈ 2.86 µM)	2 (≈ 5.73 µM)	0.75 (≈ 2.15 µM)	1 (≈ 2.86 µM)	1.67 (≈ 4.78 µM)	2 (≈ 5.73 µM)	1 (≈ 2.86 µM)	2 (≈ 5.73 µM)	0.33 (≈ 0.945 µM)	1 (≈ 2.86 µM)	2 (≈ 5.73 µM)	0.75 (≈ 2.15 µM)	0.75 (≈ 2.15 µM)	1 (≈ 2.86 µM)	1.75 (≈ 5.01 µM)	2 (≈ 5.73 µM)	1 (≈ 2.86 µM)	1 (≈ 2.86 µM)	1 (≈ 2.86 µM)	MIC (Aspergillus tubingensis [21]): 1 µg/mL (≈ 2.86 µM); MIC (Aspergillus foetidus [22]): 2 µg/mL (≈ 5.73 µM); MIC (Aspergillus niger [23]): 2 µg/mL (≈ 5.73 µM); MIC (Aspergillus foetidus [24]): 2 µg/mL (≈ 5.73 µM); MIC (Aspergillus tubingensis [25]): 2 µg/mL (≈ 5.73 µM); MIC (Aspergillus tubingensis [26]): 0.88 µg/mL (≈ 2.52 µM); MIC (Aspergillus niger [27]): 1 µg/mL (≈ 2.86 µM); MIC (Aspergillus tubingensis [28]): 2 µg/mL (≈ 5.73 µM); MIC (Aspergillus tubingensis [29]): 2 µg/mL (≈ 5.73 µM); MIC (Aspergillus niger [30]): 0.5 µg/mL (≈ 1.43 µM); MIC (Aspergillus tubingensis [31]): 2 µg/mL (≈ 5.73 µM); MIC (Aspergillus niger [32]): 0.5 µg/mL (≈ 1.43 µM); MIC (Aspergillus tubingensis [33]): 2 µg/mL (≈ 5.73 µM); MIC (Aspergillus tubingensis [34]): 1 µg/mL (≈ 2.86 µM)
